{
  "source": "patent US9399626B2",
  "about": "“2-thiopyrimidinones” (Pfizer Inc., priority 2011, dated 2016)",
  "note": "Counter-ions that a name gives are not always drawn.",
  "data": [
    {"target": "T1, MPO (purified from human polynuclear leukocytes) (Homo sapiens, UniProt P05164)", "T1 construct": "purified from human polynuclear leukocytes; purchased Calbiochem/EMD Biosciences; host or cells: human polynuclear leukocytes (natural source)", "T1 sequence (P05164 279-745 limits assumed)": "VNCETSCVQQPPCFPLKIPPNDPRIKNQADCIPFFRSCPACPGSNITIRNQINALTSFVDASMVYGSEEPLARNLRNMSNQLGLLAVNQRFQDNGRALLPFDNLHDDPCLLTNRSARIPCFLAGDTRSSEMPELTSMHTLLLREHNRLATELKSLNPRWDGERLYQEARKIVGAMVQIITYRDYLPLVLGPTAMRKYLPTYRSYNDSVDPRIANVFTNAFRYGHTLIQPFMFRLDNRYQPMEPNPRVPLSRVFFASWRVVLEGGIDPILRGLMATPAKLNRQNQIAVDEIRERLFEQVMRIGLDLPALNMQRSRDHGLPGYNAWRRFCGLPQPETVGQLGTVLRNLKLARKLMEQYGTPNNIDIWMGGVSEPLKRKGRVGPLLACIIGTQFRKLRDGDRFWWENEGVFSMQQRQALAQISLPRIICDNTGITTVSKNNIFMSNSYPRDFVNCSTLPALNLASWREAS", "T1 sequence (P05164 165-273 limits assumed)": "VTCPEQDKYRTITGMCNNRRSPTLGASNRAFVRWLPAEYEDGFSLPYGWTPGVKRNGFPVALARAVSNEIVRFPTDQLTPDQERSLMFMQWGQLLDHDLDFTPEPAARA", "assay": "MPO Amplex Red Activity Assay", "format": "biochemical", "settings": "Table 1, 2 μM H2O2, pH 7.4", "method_in_brief": "(§1)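 Human leukocyte MPO […] oxidises 30 μM Amplex Red with 2 μM H2O2 in 50 mM NaPi pH 7.4, 150 mM NaCl, 1 mM DTPA, 2% DMSO. Resorufin fluorescence (ex 530/em 580 nm) read every 20 s, minus catalase background. kobs from the first 600 s, corrected for auto-inactivation, fit versus [I] for kinact/KI.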", "values": [
      {"smiles": "COCCn1c(-c2cc(OC)cc(OC)c2)cc(=O)[nH]c1=S", "note": "[Example 330, 6-(3,5-dimethoxyphenyl)-1-(2-methoxyethyl)-2-thioxo-2,3-dihydropyrimidin-4(1H)-one]", "MPO kinact/Ki": "5210 1/s per M"},
      {"smiles": "COCCn1c(-c2coc3ccccc23)cc(=O)[nH]c1=S", "note": "[Example 305, 6-(1-benzofuran-3-yl)-1-(2-methoxyethyl)-2-thioxo-2,3-dihydropyrimidin-4(1H)-one]", "MPO kinact/Ki": "6370 1/s per M"},
      {"smiles": "COCCn1c(-c2ccccc2CO)cc(=O)[nH]c1=S", "note": "[Example 292, 6-[2-(hydroxymethyl)phenyl]-1-(2-methoxyethyl)-2-thioxo-2,3-dihydropyrimidin-4(1H)-one]", "MPO kinact/Ki": "1070 1/s per M"},
      {"smiles": "COc1cccc(-c2cc(=O)[nH]c(=S)n2CCCN)c1", "note": "[Example 265, 1-(3-aminopropyl)-6-(3-methoxyphenyl)-2-thioxo-2,3-dihydropyrimidin-4(1H)-one hydrochloride]", "MPO kinact/Ki": "3730 1/s per M"},
      {"smiles": "COc1ccc(C)cc1-c1cc(=O)[nH]c(=S)n1CCNC(=O)CN", "note": "[Example 120, N-{2-[6-(2-methoxy-5-methylphenyl)-4-oxo-2-thioxo-3,4-dihydropyrimidin-1(2H)-yl]ethyl} glycinamide hydrochloride]", "MPO kinact/Ki": "9720 1/s per M"},
      {"smiles": "COc1ccc(-c2cc(=O)[nH]c(=S)n2CCNCC(=O)O)c(OC)c1", "note": "[Example 243, N-{2-[6-(2,4-dimethoxyphenyl)-4-oxo-2-thioxo-3,4-dihydropyrimidin-1(2H)-yl]ethyl}glycine hydrochloride]", "MPO kinact/Ki": "952 1/s per M"},
      {"smiles": "COCCn1c(-c2ccc(F)cc2)cc(=O)[nH]c1=S", "note": "[Example 290, 6-(4-fluorophenyl)-1-(2-methoxyethyl)-2-thioxo-2,3-dihydropyrimidin-4(1H)-one]", "MPO kinact/Ki": "1890 1/s per M"},
      {"smiles": "COc1ccc(Cl)cc1-c1cc(=O)[nH]c(=S)n1CCCNC(N)=O", "note": "[Example 148, 1-{3-[6-(5-chloro-2-methoxyphenyl)-4-oxo-2-thioxo-3,4-dihydropyrimidin-1(2H)-yl]propyl}urea]", "MPO kinact/Ki": "6690 1/s per M"},
      {"smiles": "COc1ccc(-c2cc(=O)[nH]c(=S)n2CCCNCCO)c(OC)c1", "note": "[Example 245, 6-(2,4-dimethoxyphenyl)-1-{3-[(2-hydroxyethyl)amino]propyl}-2-thioxo-2,3-dihydropyrimidin-4(1H)-one]", "MPO kinact/Ki": "1520 1/s per M"},
      {"smiles": "COc1ccc(F)cc1-c1cc(=O)[nH]c(=S)n1CCCN=C(N)N", "note": "[Example 126, 2-{3-[6-(5-fluoro-2-methoxyphenyl)-4-oxo-2-thioxo-3,4-dihydropyrimidin-1(2H)-yl]propyl} guanidine]", "MPO kinact/Ki": "18200 1/s per M"},
      {"smiles": "COc1ccc(C)cc1-c1cc(=O)[nH]c(=S)n1CC(N)=O", "note": "[Example 164, 2-[6-(2-methoxy-5-methylphenyl)-4-oxo-2-thioxo-3,4-dihydropyrimidin-1(2H)-yl]acetamide]", "MPO kinact/Ki": "14900 1/s per M"},
      {"smiles": "NCCn1c(-c2ccccc2OCCO)cc(=O)[nH]c1=S", "note": "[Example 53, 1-(2-aminoethyl)-6-[2-(2-hydroxyethoxy)phenyl]-2-thioxo-2,3-dihydropyrimidin-4(1H)-one hydrochloride]", "MPO kinact/Ki": "3290 1/s per M"},
      {"smiles": "COCCn1c(-c2ccc3cc[nH]c3c2)cc(=O)[nH]c1=S", "note": "[Example 301, 6-(1H-indol-6-yl)-1-(2-methoxyethyl)-2-thioxo-2,3-dihydropyrimidin-4(1H)-one]", "MPO kinact/Ki": "3330 1/s per M"},
      {"smiles": "COc1ccc(-c2cc(=O)[nH]c(=S)n2CCC(=O)N(C)C)c(OC)c1", "note": "[Example 237, 3-[6-(2,4-dimethoxyphenyl)-4-oxo-2-thioxo-3,4-dihydropyrimidin-1(2H)-yl]-N,N-dimethylpropanamide]", "MPO kinact/Ki": "2360 1/s per M"},
      {"smiles": "COc1cc(-c2cc(=O)[nH]c(=S)n2CC(N)=O)c(OC)cc1Cl", "note": "[Example 229, 2-[6-(4-chloro-2,5-dimethoxyphenyl)-4-oxo-2-thioxo-3,4-dihydropyrimidin-1(2H)-yl]acetamide]", "MPO kinact/Ki": "5900 1/s per M"},
      {"smiles": "COCCn1c(-c2ccccc2-n2nccn2)cc(=O)[nH]c1=S", "note": "[Example 101, 1-(2-methoxyethyl)-2-thioxo-6-[2-(2H-1,2,3-triazol-2-yl)phenyl]-2,3-dihydropyrimidin-4(1H)-one]", "MPO kinact/Ki": "4140 1/s per M"},
      {"smiles": "NC(=O)Cn1c(-c2cccc3[nH]ccc23)cc(=O)[nH]c1=S", "note": "[Example 29, 2-[6-(1H-indol-4-yl)-4-oxo-2-thioxo-3,4-dihydropyrimidin-1(2H)-yl]acetamide]", "MPO kinact/Ki": "14900 1/s per M"},
      {"smiles": "COc1ccc(-c2cc(=O)[nH]c(=S)n2C[C@H](C)N)c(OC)c1", "note": "[Example 176, 1-[(2S)-2-aminopropyl]-6-(2,4-dimethoxyphenyl)-2-thioxo-2,3-dihydropyrimidin-4(1H)-one hydrochloride]", "MPO kinact/Ki": "2160 1/s per M"},
      {"smiles": "COc1ccc(-c2cc(=O)[nH]c(=S)n2CC(C)CO)c(OC)c1", "note": "(stereo not shown) [Example 195, 6-(2,4-dimethoxyphenyl)-1-(3-hydroxy-2-methylpropyl)-2-thioxo-2,3-dihydropyrimidin-4(1H)-one]", "MPO kinact/Ki": "5350 1/s per M"},
      {"smiles": "O=c1cc(-c2ccccc2OC(F)(F)F)n(CCO)c(=S)[nH]1", "note": "[Example 186, 1-(2-hydroxyethyl)-2-thioxo-6-[2-(trifluoromethoxy)phenyl]-2,3-dihydropyrimidin-4(1H)-one]", "MPO kinact/Ki": "3930 1/s per M"},
      {"smiles": "NC(=O)Cn1c(-c2ccccc2-n2nccn2)cc(=O)[nH]c1=S", "note": "[Example 99, 2-{4-oxo-2-thioxo-6-[2-(2H-1,2,3-triazol-2-yl)phenyl]-3,4-dihydropyrimidin-1(2H)-yl}acetamide]", "MPO kinact/Ki": "2920 1/s per M"},
      {"smiles": "COc1ccc(-c2cc(=O)[nH]c(=S)n2CCOCCN)c(OC)c1", "note": "[Example 269, 1-[2-(2-aminoethoxy)ethyl]-6-(2,4-dimethoxyphenyl)-2-thioxo-2,3-dihydropyrimidin-4(1H)-one hydrochloride]", "MPO kinact/Ki": "9510 1/s per M"},
      {"smiles": "COCCn1c(-c2cccc3ccoc23)cc(=O)[nH]c1=S", "note": "[Example 307, 6-(1-benzofuran-7-yl)-1-(2-methoxyethyl)-2-thioxo-2,3-dihydropyrimidin-4(1H)-one]", "MPO kinact/Ki": "14400 1/s per M"},
      {"smiles": "COc1ccc(-c2cc(=O)[nH]c(=S)n2CC(N)=O)cc1OC", "note": "[Example 83, 2-[6-(3,4-dimethoxyphenyl)-4-oxo-2-thioxo-3,4-dihydropyrimidin-1(2H)-yl]acetamide]", "MPO kinact/Ki": "3510 1/s per M"},
      {"smiles": "COc1ccc(-c2cc(=O)[nH]c(=S)n2CC2CCCN2C(=N)N)c(OC)c1", "note": "(stereo not shown) [Example 258, 2-{[6-(2,4-dimethoxyphenyl)-4-oxo-2-thioxo-3,4-dihydropyrimidin-1(2H)-yl]methyl}pyrrolidine-1-carboximidamide trifluoroacetate]", "MPO kinact/Ki": "1460 1/s per M"},
      {"smiles": "COCCn1c(-c2ccc(O)cc2)cc(=O)[nH]c1=S", "note": "[Example 286, 6-(4-hydroxyphenyl)-1-(2-methoxyethyl)-2-thioxo-2,3-dihydropyrimdin-4(1H)-one]", "MPO kinact/Ki": "1500 1/s per M"},
      {"smiles": "COCCn1c(-c2ccc(OC(F)(F)F)cc2)cc(=O)[nH]c1=S", "note": "[Example 210, 1-(2-methoxyethyl)-2-thioxo-6-[4-(trifluoromethoxy)phenyl]-2,3-dihydropyrimidin-4(1H)-one]", "MPO kinact/Ki": "968 1/s per M"},
      {"smiles": "COCCn1c(-c2cccc(F)c2)cc(=O)[nH]c1=S", "note": "[Example 289, 6-(3-fluorophenyl)-1-(2-methoxyethyl)-2-thioxo-2,3-dihydropyrimidin-4(1H)-one]", "MPO kinact/Ki": "1580 1/s per M"},
      {"smiles": "COCCn1c(-c2ccc(Cl)cc2)cc(=O)[nH]c1=S", "note": "[Example 298, 6-(4-chlorophenyl)-1-(2-methoxyethyl)-2-thioxo-2,3-dihydropyrimidin-4(1H)-one]", "MPO kinact/Ki": "1080 1/s per M"}
    ]},
    {"target": "T1, MPO (purified from human polynuclear leukocytes)", "assay": "MPO Amplex Red Activity Assay", "format": "biochemical", "settings": "Table 1A, 2 μM H2O2, pH 7.4", "method_in_brief": "as §1", "values": [
      {"smiles": "COc1ccc(-c2cc(=O)[nH]c(=S)n2CC(=O)NCCN)c(OCCO)c1", "note": "[Example 404, N-(2-aminoethyl)-2-{6-[2-(2-hydroxyethoxy)-4-methoxyphenyl]-4-oxo-2-thioxo-3,4-dihydropyrimidin-1(2H)-yl}acetamide]", "MPO kinact/Ki": "6200 1/s per M"},
      {"smiles": "NC(=O)Cn1c(-c2ccccc2O)cc(=O)[nH]c1=S", "note": "[Example 368, 2-[6-(2-hydroxyphenyl)-4-oxo-2-thioxo-3,4-dihydropyrimidin-1(2H)-yl]acetamide]", "MPO kinact/Ki": "3270 1/s per M"},
      {"smiles": "COc1cccc(OC)c1-c1cc(=O)[nH]c(=S)n1CC(N)=O", "note": "[Example 386, 2-[6-(2,6-dimethoxyphenyl)-4-oxo-2-thioxo-3,4-dihydropyrimidin-1(2H)-yl}acetamide]", "MPO kinact/Ki": "4960 1/s per M"},
      {"smiles": "COc1ccc(-c2cc(=O)[nH]c(=S)n2CC(=O)NCCO)c(OC)c1", "note": "[Example 385, 2-[6-(2,4-dimethoxyphenyl)-4-oxo-2-thioxo-3,4-dihydropyrimidin-1(2H)-yl]-N-(2-hydroxyethyl)acetamide]", "MPO kinact/Ki": "3530 1/s per M"},
      {"smiles": "COc1ccc(Cl)cc1-c1cc(=O)[nH]c(=S)n1CC(=O)NCCN", "note": "[Example 369, N-(2-aminoethyl)-2-[6-(5-chloro-2-methoxyphenyl)-4-oxo-2-thioxo-3,4-dihydropyrimidin-1(2H)-yl]acetamide]", "MPO kinact/Ki": "8040 1/s per M"},
      {"smiles": "O=c1cc(-c2ccccc2O)n(CCO)c(=S)[nH]1", "note": "[Example 366, 1-(2-hydroxyethyl)-6-(2-hydroxyphenyl)-2-thioxo-2,3-dihydropyrimidin-4(1H)-one]", "MPO kinact/Ki": "13600 1/s per M"},
      {"smiles": "COc1ccc(C)cc1-c1cc(=O)[nH]c(=S)n1CC(=O)NCCN", "note": "[Example 373, N-(2-aminoethyl)-2-[6-(2-methoxy-5-methylphenyl)-4-oxo-2-thioxo-3,4-dihydropyrimidin-1(2H)-yl]acetamide]", "MPO kinact/Ki": "12800 1/s per M"},
      {"smiles": "COc1ccc(-c2cc(=O)[nH]c(=S)n2CC(=O)NC2CNC2)c(OC)c1", "note": "[Example 438, N-(azetidin-3-yl)-2-[6-(2,4-dimethoxyphenyl)-4-oxo-2-thioxo-3,4-dihydropyrimidin-1(2H)-yl]acetamide]", "MPO kinact/Ki": "7550 1/s per M"}
    ]}
  ]
}
